Results taken from patent US9169252B2 (BRISTOL-MYERS SQUIBB COMPANY, priority 2014, dated 2015).
Read-outs that look alike come from different tables or passages of the source.

How the values were obtained:
[1] = target: IRAK4 (Homo sapiens (Human), UniProt Q9NWZ3); test: IRAK4 Inhibition Assay; format: biochemical; conditions: IRAK4 Inhibition Assay; ATP 500 μM; read-out: IRAK4 IC50
How it was run: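 Mobility-shift readout: fluorescent substrate and phosphoproduct resolved electrophoretically on Caliper LabChip 3000 after EDTA quench (35 mM). Enzyme reaction of IRAK4, substrates and test compound ran 60 min at room temperature.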

[2] = system: TLR2 induced IL-6 in peripheral blood mononuclear cells (PBMCs); test: PBMC TLR2 Induced IL-6 Assay; format: cell-based, human; conditions: PBMC TLR2 Induced IL-6 Assay, lipoteichoic acid stimulation, IL-6 by ELISA; for EC50: read-out: Cell EC50; for IC50: read-out: Cell IC50
How it was run: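 Lipoteichoic acid at 10 µg/ml served as TLR2 stimulus for 5 hours, following a 30-minute compound pretreatment at 37° C. Cells were Ficoll-isolated human PBMCs, 250000 cells/well, cultured in RPMI plus 10% heat-inactivated FCS.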

IRAK4, sequence (Q9NWZ3 whole entry, species assumed): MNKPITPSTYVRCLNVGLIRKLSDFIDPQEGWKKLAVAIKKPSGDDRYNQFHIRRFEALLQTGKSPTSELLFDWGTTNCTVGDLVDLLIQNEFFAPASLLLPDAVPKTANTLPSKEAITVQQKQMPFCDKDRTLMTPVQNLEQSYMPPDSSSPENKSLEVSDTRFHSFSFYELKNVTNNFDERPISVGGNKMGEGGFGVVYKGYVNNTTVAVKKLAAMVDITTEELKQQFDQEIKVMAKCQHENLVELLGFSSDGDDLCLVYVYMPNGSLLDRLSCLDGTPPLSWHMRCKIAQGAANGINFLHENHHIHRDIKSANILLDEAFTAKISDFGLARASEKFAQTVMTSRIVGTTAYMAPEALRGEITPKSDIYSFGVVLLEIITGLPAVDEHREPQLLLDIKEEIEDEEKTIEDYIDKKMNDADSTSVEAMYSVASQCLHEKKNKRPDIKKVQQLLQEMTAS

| SMILES | IC50 [1] | EC50 ([2]; Homo sapiens, PBMC) | IC50 ([2]; Homo sapiens, PBMC) | IC50 [2] | EC50 [2] |
| --- | --- | --- | --- | --- | --- |
| CNC(=O)C[C@H]1CC[C@H](NC(=O)c2cnc(-n3ncc4cc(C#N)cnc43)cc2NC(C)C)CC1 [Example 218] | 19.5 nM | 111 nM | – | – | – |
| CC(C)Nc1cc(-n2ncc3cc(C#N)cnc32)ncc1C(=O)Nc1ccc(N2CCOCC2)cn1 [Example 221] | 8.4 nM | 230 nM | – | – | – |
| CC(C)Nc1cc(-n2ncc3cc(C#N)cnc32)ncc1C(=O)Nc1ccc(N2CCOCC2)cc1 [Example 222] | 5.1 nM | 305 nM | – | – | – |
| CC(C)Nc1cc(-n2ncc3cc(C#N)cnc32)ncc1C(=O)Nc1cc2cc[nH]c2cn1 [Example 223] | 4 nM | – | 178 nM | – | – |
| CC(C)Nc1cc(-n2ncc3cc(C#N)cnc32)ncc1C(=O)Nc1cnc(N2CCOCC2)nc1 [Example 224] | 6.7 nM | 303 nM | 159 nM | – | – |
| CC(C)Nc1cc(-n2ncc3cc(C#N)cnc32)ncc1C(=O)Nc1ccc(OCCN(C)C)cn1 [Example 225] | 9.2 nM | 98 nM | – | – | – |
| CC(C)Nc1cc(-n2ncc3cc(C#N)cnc32)ncc1C(=O)Nc1ccc(CN2CCOCC2)cc1 [Example 226] | 6.8 nM | 248 nM | – | – | – |
| CC(C)Nc1cc(-n2ncc3cc(C#N)cnc32)ncc1C(=O)Nc1ccc(N2CCNCC2)nc1 [Example 227] | 5.3 nM | 55 nM | – | – | – |
| CC(C)Nc1cc(-n2ncc3cc(C#N)cnc32)ncc1C(=O)Nc1ccc(N(C)C)nc1 [Example 228] | 6.9 nM | 163 nM | – | – | – |
| CC(C)Nc1cc(-n2ncc3cc(C(F)F)cnc32)ncc1C(=O)NC[C@@H](F)C(C)(C)O [Example 231] | 14.2 nM | 237 nM | 544 nM | – | – |
| CC(C)(CO)Nc1cc(-n2ncc3cc(C#N)cnc32)ncc1C(=O)NC[C@@H](F)C(C)(C)O [Example 234] | 4.7 nM | 128 nM | 1360 nM | – | – |
| CC(C)Nc1cc(-n2ncc3cc(C#N)cnc32)ncc1C(=O)NCCC1(O)CCOCC1 [Example 235] | 6.1 nM | 184 nM | – | – | – |
| CC(C)Nc1cc(-n2ncc3cc(C#N)cnc32)ncc1C(=O)Nc1ccc(C(C)(C)O)cn1 [Example 236] | 11.6 nM | 323 nM | – | – | – |
| CC(C)Nc1cc(-n2ncc3cc(C#N)cnc32)ncc1C(=O)NC1CCN(c2ncccn2)CC1 [Example 240] | 15.7 nM | 305 nM | – | – | – |
| CC(C)Nc1cc(-n2ncc3cc(C#N)cnc32)ncc1C(=O)Nc1ccc(N2CCN(C)CC2)cn1 [Example 241] | 7.3 nM | 292 nM | – | – | – |
| CC(C)Nc1cc(-n2ncc3cc(C#N)cnc32)ncc1C(=O)NCC(F)C1(O)COC1 (stereo not drawn) [Example 243] | 5.3 nM | 298 nM | – | 1990 nM | – |
| CC(C)Nc1cc(-n2ncc3cc(C#N)cnc32)ncc1C(=O)N[C@H]1CC[C@H](C(C)(C)O)C1 [Example 244] | 6.3 nM | 259 nM | – | – | – |

| SMILES | IC50 [1] | EC50 ([2]; Homo sapiens, PBMC) | IC50 ([2]; Homo sapiens, PBMC) | IC50 [2] | EC50 [2] |
| --- | --- | --- | --- | --- | --- |
| COC1CCN(c2ccc(NC(=O)c3cnc(-n4ncc5cc(C#N)cnc54)cc3NC(C)C)cn2)CC1 [Example 247] | 6.8 nM | 173 nM | – | – | – |
| CC(C)Nc1cc(-n2ncc3cc(C#N)cnc32)ncc1C(=O)NCC(F)C1(O)COC1 (stereo not drawn) [Example 248] | 3.6 nM | – | – | 554 nM | – |
| CC(C)Nc1cc(-n2ncc3cc(C#N)cnc32)ncc1C(=O)NCC(F)C1(O)COC1 (stereo not drawn) [Example 249] | 6.1 nM | – | – | 355 nM | – |
| CC(C)Nc1cc(-n2ncc3cc(C#N)cnc32)ncc1C(=O)NCCC1(O)CCN(C)CC1 [Example 250] | 8.3 nM | 497 nM | – | – | – |
| CC(C)Nc1cc(-n2ncc3cc(C#N)cnc32)ncc1C(=O)NCCC1(O)CCN(C2COC2)CC1 [Example 253] | 8.5 nM | – | 363 nM | – | – |
| COC1CCN(c2ccc(NC(=O)c3cnc(-n4ncc5cc(C#N)cnc54)cc3NC(C)C)nc2)CC1 [Example 254] | 10 nM | – | 496 nM | – | – |
| CC(C)Nc1cc(-n2ncc3cc(C#N)cnc32)ncc1C(=O)NC[C@@H](F)C(=O)N1CCOCC1 [Example 256] | 14.7 nM | – | 148 nM | – | – |
| CC(C)Nc1cc(-n2ncc3cc(C#N)cnc32)ncc1C(=O)NC[C@@H](F)C(=O)N1CCN(S(C)(=O)=O)CC1 [Example 257] | 8.9 nM | 136 nM | – | – | – |
| CC(C)Nc1cc(-n2ncc3cc(Cl)cnc32)ncc1C(=O)NCC(F)C1(O)COC1 (stereo not drawn) [Example 258] | 6.3 nM | – | 42 nM | – | – |
| CC(C)Nc1cc(-n2ncc3cc(C#N)cnc32)ncc1C(=O)NCCc1ccc(F)cc1 [Example 260] | 3.3 nM | – | 159 nM | – | – |
| COc1ccc(CCNC(=O)c2cnc(-n3ncc4cc(C#N)cnc43)cc2NC(C)C)cc1 [Example 261] | 3.4 nM | – | 154 nM | – | – |
| CC(C)Nc1cc(-n2ncc3cc(C#N)c(N)nc32)ncc1C(=O)NC[C@@H](F)C(C)(C)O [Example 262] | 1.3 nM | – | 48 nM | – | – |
| CC(C)Nc1cc(-n2ncc3cc(C#N)cnc32)ncc1C(=O)NCc1nc(Cc2ccccc2)no1 [Example 267] | 4.5 nM | – | 516 nM | – | – |
| CC(C)Nc1cc(-n2ncc3cc(C#N)cnc32)ncc1C(=O)Nc1cnn(C2COC2)c1 [Example 268] | 10.6 nM | – | 171 nM | – | – |
| CC(C)Nc1cc(-n2ncc3cc(C#N)cnc32)ncc1C(=O)NCCc1ccc(N(S(C)(=O)=O)S(C)(=O)=O)cc1 [Example 269] | 3.6 nM | – | 171 nM | – | – |
| CC(=O)Nc1ccc(CCNC(=O)c2cnc(-n3ncc4cc(C#N)cnc43)cc2NC(C)C)cc1 [Example 270] | 1.6 nM | – | 348 nM | – | – |

Second part, led by results:

| IC50 [1] | SMILES | EC50 ([2]; Homo sapiens, PBMC) | IC50 ([2]; Homo sapiens, PBMC) | IC50 [2] | EC50 [2] |
| --- | --- | --- | --- | --- | --- |
| 14.9 nM | CC(C)Nc1cc(-n2ncc3cc(C#N)cnc32)ncc1C(=O)NCCNS(C)(=O)=O [Example 219] | 502 nM | 678 nM | – | – |
| 6.5 nM | CC(C)Nc1cc(-n2ncc3cc(C#N)cnc32)ncc1C(=O)NCCC1CCCCO1 (stereo not drawn) [Example 220] | 168 nM | – | – | – |
| 9.6 nM | CNC(=O)[C@H](F)CNC(=O)c1cnc(-n2ncc3cc(C#N)cnc32)cc1NC(C)C [Example 229] | 137 nM | 1420 nM | – | – |
| 13.4 nM | CC(C)Nc1cc(-n2ncc3cc(C#N)cnc32)ncc1C(=O)NC[C@@H](F)C(=O)N[C@@H](C)CO [Example 230] | 410 nM | 459 nM | – | – |
| 6.7 nM | CC(C)Nc1cc(-n2ncc3cc(C#N)cnc32)ncc1C(=O)NCCC1(O)CCOC1 (stereo not drawn) [Example 237] | 102 nM | 364 nM | – | – |
| 8.1 nM | CC(O)CCNC(=O)c1cnc(-n2ncc3cc(C#N)cnc32)cc1NC(C)C (stereo not drawn) [Example 238] | 357 nM | – | 1810 nM | – |
| 5.3 nM | CC(O)CCNC(=O)c1cnc(-n2ncc3cc(C#N)cnc32)cc1NC(C)C (stereo not drawn) [Example 239] | – | – | 775 nM | 211 nM |
| 15.7 nM | CC(C)Nc1cc(-n2ncc3cc(C#N)cnc32)ncc1C(=O)N[C@@H]1CCCN(S(C)(=O)=O)C1 [Example 245] | 233 nM | – | – | – |
| 19.8 nM | CC(C)Nc1cc(-n2ncc3cc(C#N)cnc32)ncc1C(=O)N[C@H]1CCCN(S(C)(=O)=O)C1 [Example 246] | 353 nM | – | – | – |
| 3.1 nM | CC(C)Nc1cc(-n2ncc3cc(C#N)cnc32)ncc1C(=O)NCCc1ccc(S(N)(=O)=O)cc1 [Example 251] | 311 nM | – | – | – |
| 3.6 nM | CC(C)Nc1cc(-n2ncc3cc(C#N)cnc32)ncc1C(=O)NCCC1(O)CCCC1 [Example 252] | – | 197 nM | – | – |
| 7.5 nM | CC(C)Nc1cc(-n2ncc3cc(C#N)cnc32)ncc1C(=O)NCCC1(O)CCNC1 (stereo not drawn) [Example 255] | 329 nM | – | – | – |
| 2.5 nM | CC(C)Nc1cc(-n2ncc3cc(C#N)cnc32)ncc1C(=O)NCCc1ccncc1 [Example 259] | – | 102 nM | – | – |
| 6.5 nM | CC(C)Nc1cc(-n2ncc3cc(C#N)cnc32)ncc1C(=O)NCCC(C)NS(C)(=O)=O (stereo not drawn) [Example 264] | – | 338 nM | – | – |
| 2.4 nM | CC(C)Nc1cc(-n2ncc3cc(C#N)cnc32)ncc1C(=O)NCCC(C)NS(C)(=O)=O (stereo not drawn) [Example 265] | – | – | 241 nM | – |
| 2.6 nM | CC(C)Nc1cc(-n2ncc3cc(C#N)cnc32)ncc1C(=O)NCCC1CCN(C)CC1 [Example 266] | – | 73 nM | – | – |
